# Measured values reported in US8592375B2, “Multifunctional context-activated protides and methods of use” (Los Angeles Biomedical Research Institute at Harbor-UCLA …, priority 2002, dated 2013).
# Where two headings read alike, the source gives them in different places. Where a SMILES comes first, the peptide text is derived from it.
# Experiments:
# [1] = molecular target: T1, staphylococcal V8 protease (Staphylococcus aureus, UniProt P0C1U8); assay: Cleavage (activation) of PT-1 by purified V8 protease in vitro, followed by analytical RP-HPLC and AU-PAGE; type: biochemical, S. aureus; settings: in a time frame of minutes, fragments consistent with RP-1 and IL-8-like domains
# T1 construct: purchased Sigma Chemical Co
# T1 sequence (P0C1U8 69-336): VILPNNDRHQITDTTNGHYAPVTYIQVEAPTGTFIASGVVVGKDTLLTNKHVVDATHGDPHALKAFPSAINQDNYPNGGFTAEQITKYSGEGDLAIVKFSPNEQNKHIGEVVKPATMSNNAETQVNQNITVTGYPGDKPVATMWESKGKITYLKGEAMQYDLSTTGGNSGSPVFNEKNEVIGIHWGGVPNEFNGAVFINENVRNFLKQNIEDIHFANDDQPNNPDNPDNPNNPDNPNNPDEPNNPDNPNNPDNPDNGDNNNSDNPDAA
# [2] = test system: S. aureus strains ISP479C and ISP479R; assay: Modified radial diffusion assay, S. aureus strains; type: cell-based; settings: 5 ug per well, both S. aureus strains, regardless of intrinsic susceptibility or resistance
# Excerpt: (§1) In order to assess the antimicrobial properties of PT-1, a panel of well-characterized test pathogens was used that included S. aureus strains ISP479C and ISP479R as described by Dhawan et al., Infect. Immun. 66:[…] (1998); Candida albicans strains 36082 (ATCC type strain 36082)and 36082R as described by Yeaman et al., Infect. Immun. 64:1379-1384 (1996); Salmonella typhimurium strains m5996s and 14028s as described by Fields et al., Science 243:1059-62 (1989); Yeaman et al., 38th Interscience Conference on Antimicrobial Agents and Chemotherapy (ICAAC), San Diego, Calif., Abstract No. F-170 (1999); and Bacillus subtilis strain ATCC 6633 as described by Yeaman et al., Infect. Immun. 60:1202-1209 (1992), each of which is incorporated herein by reference in its entirety.
# (§2) In order to compare the antimicrobial activities of PT-1 with those of RP-1 against a panel of test pathogens, radial diffusion assay and a microtiter well assay were utilized.
# (§3) Briefly, a modified radial diffusion assay was employed to compare the antimicrobial activities of PT-1 with RP-1 in a solid-phase matrix format. […] The assay plates were then incubated for 18 h at 37° C., after which zones of inhibition (in mm of diameter) were measured and recorded.
# [3] = test system: all organisms except S. aureus (Candida albicans, Salmonella typhimurium, Bacillus subtilis); assay: Modified radial diffusion assay, test pathogens other than S. aureus; type: cell-based; settings: 5 ug per well, organisms that do not elaborate V8 protease
# Excerpt: as §1, §2, §3
# [4] = test system: S. aureus strains ISP479C and ISP479R; type: cell-based
# Excerpt: as §1
# A microtiter well assay was also performed as a complement to the radial diffusion assay described above. In this assay, PT-1, RP-1, or V8 protease (Sigma Chemical Co.) were serially diluted from 100 ug (range, 100-0.20 ug/ml) and individually assessed for antimicrobial activity against S. aureus strains ISP479C and ISP479R as described above. In addition, this assay allowed for the evaluation of antimicrobial activities of combinations of PT-1 and V8, in conditions of constant or dynamic dilution of one or both agents. This latter approach enabled the determination of static as well as dynamic fractional inhibitory concentrations (FICs) of PT-1 in the presence and absence of purified V8 protease.
smiles,measurement,setting,value
CC[C@H](C)[C@H](NC(=O)[C@H](CS)NC(=O)[C@H](CCC(N)=O)NC(=O)[C@H](CS)NC(=O)[C@H](CCCNC(=N)N)NC(=O)[C@H](CC(C)C)NC(=O)[C@H](CCC(=O)O)NC(=O)[C@H](CCCCN)NC(=O)[C@H](C)N)C(=O)N[C@@H](CCCCN)C(=O)N[C@H](C(=O)N[C@@H](Cc1ccc(O)cc1)C(=O)N[C@@H](CO)C(=O)N[C@@H](CCCCN)C(=O)N[C@@H](CCC(=O)O)C(=O)N[C@@H](C)C(=O)N[C@@H](CC(C)C)C(=O)N[C@@H](Cc1ccc(O)cc1)C(=O)N[C@@H](CCCCN)C(=O)N[C@@H](CCCCN)C(=O)N[C@@H](Cc1ccccc1)C(=O)N[C@@H](CCCCN)C(=O)N[C@@H](CCCCN)C(=O)N[C@@H](CCCCN)C(=O)N[C@@H](CC(C)C)C(=O)N[C@@H](CC(C)C)C(=O)N[C@@H](CCCCN)C(=O)N[C@@H](CO)C(=O)N[C@@H](CC(C)C)C(=O)N[C@@H](CCCCN)C(=O)N[C@@H](CCCNC(=N)N)C(=O)N[C@@H](CC(C)C)C(=O)NCC(=O)O)[C@@H](C)O [PT-1] (H-AKELRCQCIKTYSKEALYKKFKKKLLKSLKRLG-OH; N-terminus and C-terminus assumed),cleavage (activation) on exposure to purified V8 protease,[1],cleaved (activated) into two separate fragments
same,antimicrobial activity (zones of inhibition),[2],activation and enhanced antimicrobial activity
same,antimicrobial activity compared with RP-1 (zones of inhibition),[3],substantially less antimicrobial activity than RP-1
same,FIC (fractional inhibitory concentration),"[4]; PT-1 with V8 protease, considered synergistic",< 0.5
same,MIC,[4]; co-incubated with V8 protease,3.1 µg/mL
same,increased activity in the presence of purified V8 protease compared to its absence,[4]; with vs without purified V8 protease,≥ 2 fold
same,MIC,[4]; without V8 protease,12.5 µg/mL
